Data on 27 compounds can be found in patent US20090197859A1 (Pfizer Inc., priority 2008, published 2009).

Series [1] has as its target T1, cloned human 5-HT6 receptor (Homo sapiens, UniProt P50406).
T1 construct: host or cells: HeLa cells, G-418 selection, membrane preparation
The series can be described thus: 5-HT6 Receptor Binding Assay ([3H]-LSD radioligand, SPA). To be noted: read-out: 5HT6 % inh @ 1 uM. The procedure:
5-HT6 Receptor Binding Assay
Hela cells containing the cloned human 5-HT6 receptor were acquired from Dr. David R. Sibley's laboratory in National Institute of Health (see Sibley, D. R., J. Neurochemistry, 66, 47-56, 1996). Cells were grown in high glucose Dulbecco's modified Eagle's medium, supplemented with L-glutamine, 0.5% sodium pyruvate, 0.3% penicillin-streptomycin, 0.025% G-418 and 5% Gibco fetal bovine serum and then were harvested, when confluent, in cold phosphate buffered saline.
Harvested intact cells were washed once in cold phosphate-buffered saline. The cells were pelleted and resuspended in 100 ml of cold 50 mM Tris, 5 mM EDTA and 5 mM EGTA, pH 7.4. Homogenization was with a Vir Tishear generator, 4 cycles for 30 seconds each at setting 50. The homogenized cells were centrifuged at […] for 10 minutes and the supernatant was removed. The pellet was resuspended in 100 ml of the above buffer and rehomogenized for 2 cycles. The rehomogenized cells were then centrifuged at […] for 10 minutes and the supernatant was removed. The combined supernatant (200 ml) was centrifuged at 23,000 RPM (80,000×g) for 1 hour in a Beckman Rotor (42.1 Ti). The membrane pellet was resuspended in […] of assay buffer containing HEPES 20 mM, MgCl2 10 mM, NaCl 150 mM, EDTA 1 mM, pH 7.4 and stored frozen in aliqouts at −70° C.
The radioligand binding assay used [^3H]-lysergic acid diethylamide (LSD). The assay was carried out in Wallac 96-well sample plates by the addition of 11 μl of the test sample at the appropriate dilution (the assay employed 11 serial concentrations of samples run in duplicate), 11 μl of radioligand, and 178 μl of a washed mixture of WGA-coated SPA beads and membranes in binding buffer. The plates were shaken for about 5 minutes and then incubated at room temperature for 1 hour. The plates were then loaded into counting cassettes and counted in a Wallac MicroBeta Trilux scintillation counter.
Binding Constant Determination may be obtained by performing serial dilutions, e.g., eleven dilutions, of test compounds into assay plates using the PE/Cetus Pro/Pette pipetter. These dilutions are followed by radioligand and the bead-membrane mixture prepared as described above. After obtaining the specifically bound cpm, the data are fit to a one-site binding model using GraphPad Prism ver. 2.0. Estimated IC50 values are converted to Ki values using the Cheng-Prusoff equation (Cheng, Y. C. et al., Biochem. Pharmacol., 22, 3099-108, 1973).

SMILES strings stand for the structures. Counter-ions that a name gives are not always drawn.

A word on the melting point: it is the temperature, or range, at which the solid turns liquid.

T1 sequence (P50406 whole entry): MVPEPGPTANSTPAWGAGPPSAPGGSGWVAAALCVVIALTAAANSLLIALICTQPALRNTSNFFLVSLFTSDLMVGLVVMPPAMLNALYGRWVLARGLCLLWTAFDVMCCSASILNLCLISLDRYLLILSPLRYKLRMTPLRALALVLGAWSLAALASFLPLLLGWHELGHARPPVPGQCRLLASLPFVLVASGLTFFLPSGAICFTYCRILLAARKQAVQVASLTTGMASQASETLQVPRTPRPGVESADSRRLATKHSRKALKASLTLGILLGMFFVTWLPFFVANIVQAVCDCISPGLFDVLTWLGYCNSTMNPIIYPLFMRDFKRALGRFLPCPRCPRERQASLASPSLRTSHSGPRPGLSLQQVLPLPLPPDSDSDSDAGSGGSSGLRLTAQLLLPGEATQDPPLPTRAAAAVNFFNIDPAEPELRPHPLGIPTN

Consider `Cc1ccccc1[C@@H](C)N(C)C(=O)c1cccc(N2CCN(C)CC2)n1` [Example 61, 6-(4-Methyl-piperazin-1-yl)-pyridine-2-carboxylic acid methyl-((R)-1-o-tolyl-ethyl)-amide], for which the melting point is 142 to 143 °C. The inhibition at 1 µM in series [1] was determined as 86.7%.
For `CN1CCN(c2cccc(C(=O)N3CCC(c4ccc(F)cc4F)CC3)n2)CC1` [Example 102, [4-(2,4-Difluoro-phenyl)-piperidin-1-yl]-[6-(4-methyl-piperazin-1-yl)-pyridin-2-yl]-methanone] the same measures were 148.6 to 149.5 °C and 98.7%.
For `Cc1ccccc1[C@H]1CCCCN1C(=O)c1cccc(N2CCN(C)CC2)n1` [Example 62, [6-(4-Methyl-piperazin-1-yl)-pyridin-2-yl]-((R)-2-o-tolyl-piperidin-1-yl)-methanone] the same measures were 188 to 188.7 °C and 70%.
`Cc1ccc(O[C@@H]2CCN(C(=O)c3cccc(N4CCCN(C)CC4)n3)C2)cc1` [Example 59, [6-(4-Methyl-[1,4]diazepan-1-yl)-pyridin-2-yl]-((R)-3-p-tolyloxy-pyrrolidin-1-yl)-methanone] had a melting point of 108 to 110 °C. Also, the inhibition at 1 µM in series [1] is 76.2%.
In turn, `CN1CCN(c2cccc(C(=O)N3CCC[C@H](Oc4cccc(Cl)c4)C3)n2)CC1` [Example 77, [(S)-3-(3-Chloro-phenoxy)-piperidin-1-yl]-[6-(4-methyl-piperazin-1-yl)-pyridin-2-yl]-methanone] registered a melting point of 78 to 80 °C. In addition, the inhibition at 1 µM in series [1] came to 99.5%.
Consider `CN1CCN(c2cccc(C(=O)N(C)Cc3cccc(Cl)c3)n2)CC1` [Example 71, 6-(4-Methyl-piperazin-1-yl)-pyridine-2-carboxylic acid (3-chloro-benzyl)-methyl-amide], for which the melting point lay within 81 to 82 °C. The inhibition at 1 µM in series [1] was found to be 87.1%.
For `CN1CCN(c2cccc(S(=O)(=O)N3CCCCC3c3ccccc3F)n2)CC1` (centres unmarked) [Example 79, 1-{6-[2-(2-Fluoro-phenyl)-piperidine-1-sulfonyl]-pyridin-2-yl}-4-methyl-piperazine] the same measures were 195.3 to 196.4 °C and 90.2%.
The compound `CN1CCC(c2cccc(C(=O)N3CCC(Oc4cccc(F)c4)CC3)n2)C1` (centres unmarked) (as salt: hydrochloride) [Example 16, [4-(3-Fluoro-phenoxy)-piperidin-1-yl]-[6-(1-methyl-pyrrolidin-3-yl)-pyridin-2-yl]-methanone] showed a melting point of 85 to 86 °C.
For `O=C(c1cccc(N2CCNCC2)n1)N1CCCCC1c1ccc(F)cc1` (centres unmarked) [Example 29, [2-(4-Fluoro-phenyl)-piperidin-1-yl]-(6-piperazin-1-yl-pyridin-2-yl)-methanone], the melting point fell in the range of 102 to 103.2 °C. Besides, the inhibition at 1 µM in series [1] worked out at 75.1%.
In the same order, the values of `Cc1cccc(C2CCCCN2C(=O)c2cccc(N3CCNCC3)n2)c1` (centres unmarked) [Example 28, (6-Piperazin-1-yl-pyridin-2-yl)-(2-m-tolyl-piperidin-1-yl)-methanone] are 154.1 to 155.5 °C and 94.6%.
For `Cc1ccccc1O[C@@H]1CCN(C(=O)c2cccc(N3CCCN(C)CC3)n2)C1` (as salt: hydrochloride) [Example 53, [6-(4-Methyl-[1,4]diazepan-1-yl)-pyridin-2-yl]-((R)-3-o-tolyloxy-pyrrolidin-1-yl)-methanone], the melting point was in the range of 94 to 96 °C.
As to `Cc1cccc(O[C@H]2CCCN(C(=O)c3cccc(N4CCN(C)CC4)n3)C2)c1` [Example 76, [6-(4-Methyl-piperazin-1-yl)-pyridin-2-yl]-((S)-3-m-tolyloxy-piperidin-1-yl)-methanone], the melting point is 73 to 75 °C. For the same compound, the inhibition at 1 µM in series [1] was 99%.
In the same order, the values of `CN1CCN(c2cccc(C(=O)N3CCC[C@H](Oc4cccc(F)c4)C3)n2)CC1` [Example 75, [(S)-3-(3-Fluoro-phenoxy)-piperidin-1-yl]-[6-(4-methyl-piperazin-1-yl)-pyridin-2-yl]-methanone] are 84 to 86 °C and 97.3%.
Compound `CN1CCN(c2cccc(C(=O)N3CC=C(c4ccccc4F)CC3)n2)CC1` (as salt: hydrochloride) [Example 21, [4-(2-Fluoro-phenyl)-3,6-dihydro-2H-pyridin-1-yl]-[6-(4-methyl-piperazin-1-yl)-pyridin-2-yl]-methanone] gave a melting point of 176.7 to 177.2 °C.
`CN1CCCN(c2cccc(C(=O)N3CC[C@@H](Oc4ccccc4F)C3)n2)CC1` (as salt: hydrochloride) [Example 46, [(R)-3-(2-Fluoro-phenoxy)-pyrrolidin-1-yl]-[6-(4-methyl-[1,4]diazepan-1-yl)-pyridin-2-yl]-methanone] showed a melting point of 106 to 108 °C.
On the same count and under the same terms, for `Cc1ccccc1OC1CCN(C(=O)c2cccc(C3CCN(C)CC3)n2)CC1` (as salt: hydrochloride) [Example 95, (1′-Methyl-1′,2′,3′,4′,5′,6′-hexahydro-[2,4′]bipyridinyl-6-yl)-(4-o-tolyloxy-piperidin-1-yl)-methanone] the value was 118 to 120 °C; for `O=C(c1cccc(N2CCCNCC2)n1)N1CC[C@H](Oc2ccccc2F)C1` (as salt: hydrochloride) [Example 30, (6-[1,4]Diazepan-1-yl-pyridin-2-yl)-[(S)-3-(2-fluoro-phenoxy)-pyrrolidin-1-yl]-methanone], 75 to 77 °C; for `O=S(=O)(c1cccc(N2CCNCC2)n1)N1CCC(c2ccccc2F)CC1` (as salt: hydrochloride) [Example 51, 1-{6-[4-(2-Fluoro-phenyl)-piperidine-1-sulfonyl]-pyridin-2-yl}-piperazine], 211 to 212.2 °C.
Same read-out and setting: for `Cc1cccc(F)c1C1CCN(C(=O)c2cccc(N3CCN(C)CC3)n2)CC1` (as salt: hydrochloride) [Example 23, [4-(2-Fluoro-6-methyl-phenyl)-piperidin-1-yl]-[6-(4-methyl-piperazin-1-yl)-pyridin-2-yl]-methanone] the value was 163 to 164.7 °C.
Still for that read-out and setting: for `Cc1ccccc1C1CCCCN1C(=O)c1cccc(N2CCNCC2)n1` (centres unmarked) (as salt: hydrochloride) [Example 26, (6-Piperazin-1-yl-pyridin-2-yl)-(2-o-tolyl-piperidin-1-yl)-methanone] the value was 105.6 to 106 °C.
Consider `CN1CCC(c2cccc(C(=O)N3CCC(Oc4ccccc4F)CC3)n2)C1` (centres unmarked) [Example 113, [4-(2-Fluoro-phenoxy)-piperidin-1-yl]-[6-(1-methyl-pyrrolidin-3-yl)-pyridin-2-yl]-methanone], for which, in series [1], the inhibition at 1 µM was 97.8%.
`Cc1ccccc1O[C@@H]1CCN(C(=O)c2cccc(N3CCCN(C)CC3)n2)C1` [Example 53, [6-(4-Methyl-[1,4]diazepan-1-yl)-pyridin-2-yl]-((R)-3-o-tolyloxy-pyrrolidin-1-yl)-methanone]: in series [1], the inhibition at 1 µM worked out at 95.9%.
The same measure, in the same setting: the value for `O=C(c1cccc(N2CCCNCC2)n1)N1CCC[C@@H](Oc2ccccc2F)C1` [Example 47, (6-[1,4]Diazepan-1-yl-pyridin-2-yl)-[(R)-3-(2-fluoro-phenoxy)-piperidin-1-yl]-methanone] was 90.6%; that for `Cc1cccc([C@H]2CCCCN2C(=O)c2cccc(N3CCCN(C)CC3)n2)c1` [Example 81] was 93.6%.
Regarding `Cc1ccccc1C1CCN(S(=O)(=O)c2cccc(N3CCN(C)CC3)n2)CC1` (as salt: hydrochloride) [Example 78, 1-Methyl-4-[6-(4-o-tolyl-piperidine-1-sulfonyl)-pyridin-2-yl]-piperazine], the melting point fell in the range of 203 to 204.5 °C.
Turning to `CN1CCN(c2cccc(C(=O)N3CC(c4cccc(F)c4)C3)n2)CC1` [Example 84, [3-(3-Fluoro-phenyl)-azetidin-1-yl]-[6-(4-methyl-piperazin-1-yl)-pyridin-2-yl]-methanone], the inhibition at 1 µM in series [1] is 78%.
Turning to `Cc1ccccc1C1CCN(C(=O)c2cccc(N3CCN(C4CC4)CC3)n2)CC1` [Example 114, [6-(4-Cyclopropyl-piperazin-1-yl)-pyridin-2-yl]-(4-o-tolyl-piperidin-1-yl)-methanone], the inhibition at 1 µM in series [1] worked out at 64.5%.
